Measurements as given in patent US20100076017A1, “SITAMAQUINE TOSYLATE FOR THE TREATMENT OF LEISHMANIASIS” (priority 2006, published 2010).
Structures can show the parent of a compound that is named as a salt.

Experiment: hygroscopicity / developability characteristics of the salt form
Assay type: physicochemical
Conditions: solid salt form; poor developability characteristics
Source text: This means that reproducibility of standard batches of drug is very difficult, and that the drug would have a very short shelf life in those countries where it is particularly needed.

Which “relative humidity at which the salt is hygroscopic” value does the source give for CCN(CC)CCCCCCNc1cc(OC)cc2c(C)ccnc12 [dihydrochloride salt, N,N-diethyl-N′-(6-methoxy-4-methyl-8-quinolinyl)-1,6-hexane diamine] here?
Its value is “about 60 % relative humidity”.
